# Results as given in patent publication US20230024991A1, “PRODRUGS OF ACYL CARNITINES” (ATAI Life Sciences AG, priority 2021, published 2023).
# Legend:
# [1] = Determination of plasma half life, dog plasma; type: in vitro ADME; settings: pH 7.4, 37° C. (Table 4)
# Protocol: (§1) Human, rat, and dog plasma were dialyzed against PBS buffer, pH 7.4 using Thermo Slide-A-Lyzer™ G2 Dialysis Cassettes for 24 hours at 4° C. prior to the experiment.
# (§2) The assay was carried out in 96-well microtiter plates. Prodrugs and the reference compound (propantheline) at a final concentration of 1 μM were incubated separately in singlet at 37° C. with mouse, rat, dog, monkey or human plasma for 0, 30, 60, 120, 240, and 1440 min. At the end of each incubation time point, 300 μL of the quenching solutions (50% acetonitrile, 50% methanol, 0.05% formic acid) containing the internal standards (bucetin and d3-carnitine) was added to each well. The incubation plates were sealed, vortexed, and centrifuged at 10° C. for 15 minutes at 4000 rpm. The supernatant was transferred to fresh plates for LC/MS/MS analysis of the test compounds.
# (§3) All samples were analyzed by LC/MS/MS using an AB Sciex API 4000 instrument (AB Sciex LLC, Framingham, Mass.), coupled to a Shimadzu LC-20AD LC Pump system (Shimadzu North America, Columbia, Md.). […]
# (§4) The extent of metabolism was calculated based on the disappearance of prodrugs, compared to their initial concentration. The initial rates of clearance of prodrugs were calculated using linear regression plot of semi-log % remaining of prodrugs versus time. […]
# [2] = Determination of plasma half life, rat plasma; type: in vitro ADME; settings: pH 7.4, 37° C. (Table 4), read-out: Mean t1/2
# Protocol: as §1, §2, §3, §4
# [3] = Determination of plasma half life, human plasma; type: in vitro ADME; settings: 37° C. (Table 1), read-out: Human Mean t1/2
# Protocol: as §1, §2, §3, §4
# [4] = cited from earlier work
# [5] = normal baseline conditions; cited from earlier work
SMILES,half-life at 1 μM [1] [h],half-life at 1 μM [2] [h],half-life at 1 μM [3] [h],"bioavailability of dietary L-carnitine ([4]; dietary, depends on the amount in the meal)",bioavailability ([4]; oral administration of large amounts of exogenous carnitine (1-6 g)),tubular reabsorption in the kidney [5]
"CCOC(=O)C[C@H](C[N+](C)(C)C)OC(=O)CC [Compound 3, (R)-4-ethoxy-N,N,N-trimethyl-4-oxo-2-(propionyloxy)butan-1-aminium chloride]",22.7,8.79,9.16,–,–,–
"CCCCC(=O)O[C@H](CC(=O)OCC)C[N+](C)(C)C [Compound 4, (R)-4-ethoxy-N,N,N-trimethyl-4-oxo-2-(pentanoyloxy)butan-1-aminium chloride]",11.7,4.33,0.927,–,–,–
C[N+](C)(C)C[C@H](O)CC(=O)[O-] [L-carnitine],–,–,–,54-87%,5-18%,about 99%
